From US6642365B1, “Anti-(retro)viral conjugates of saccharides and acetamidino or guanidino compounds” (Yeda Research and Development Co. Ltd., priority 2001, dated 2003)

Tests used:
[1] = test system: TAR RNA; test: L-arginine-Amberlite affinity column elution of TAR RNA; format: binding, HIV-1; settings: concentration that elutes 50% of TAR RNA from L-arginine-Amberlite affinity column
Method: (§1) The model Tat peptide (R52: […]) was prepared by the Weizmann Institute Chemical Services and was purified by reverse phase HPLC (C-18) (Lapidot et al., 1995). […] The RNA was transcriptionally labeled with α-^32P UTP, purified on a 12% polyacrylamide/7M urea gel (19:1 acrylamide:bis-acrylamide) and was eluted from the gel by 0.5M ammonium acetate, 10 mM magnesium acetate, 1 mM EDTA and 0.1% SDS. The sample was subjected to phenol extraction and the RNA was precipitated from 70% ethanol. Purified RNA was dissolved in diethyl pyrocarbonate-treated water (DEPC water), its concentration was determined by UV absorption at 260 nm and the specific radioactivity was determined by scintillation counting on a LS 1701 “Bruker” counter.
The L-arginine-Amberlite resin was prepared as follows: Carboxyl groups of Amberlite IRC-50 resin were covalently modified with ethanolamine using 1-(3-dimethylaminopropyl) 3-ethylcarbodiimide, a water-soluble coupler. The hydroxy ethyleneamide resin obtained was washed and dried, and L-arginine (12-16 μmols per ml of resin) was coupled to the hydroxy groups of the resin via an isourea moiety using a standard cyanogen bromide protocol. The final concentration of arginine residues was 12-16 μmol per ml of resin. The swollen L-arginino-Amberlite resin (200 μl) was packed into a plastic mini-column and equilibrated with buffer containing 40 mM Tris HCl, pH 7.5, 250 mM NaCl, 0.5 mM EDTA and 5 mM MgCl2 (buffer A). Approximately 1 ng of ^32P-UTP labeled TAR RNA in buffer A was loaded on the column. The column was eluted 3 to 5 times with 400 μl portions of buffer A, until no radioactivity was detected in the eluent. […] Each of the test compounds was dissolved in buffer A and passed through the column in 300 μl portions. Radioactivity of the eluates was determined by scintillation counting on a LS 1701 “Bruker” counter. CE50 values, the concentrations of inhibitors eluting 50% of the radioactive material from the column, were determined.

[2] = biological target: Tat-TAR interaction; test: Gel-shift inhibition of Tat R52 peptide binding to TAR RNA; parameters: species or system HIV-1; settings: for IC50: TAR RNA 6 nM, 60 nM Tat R52, read-out: CI50 (the source's name); for Ki: CI50 normalized to the conditions of Tao and Frankel, 1992, read-out: apparent Ki
Method: The model Tat peptide (R52: […]) was prepared by the Weizmann Institute Chemical Services and was purified by reverse phase HPLC (C-18) (Lapidot et al., 1995). A 31-nt TAR RNA fragment (5′-GGCCAGAUCUGAGCCUGGGAGCUCUCUGGCC-3′) containing the sequence 18-44 of the HIV LTR (Aboul-Ela et al., 1995) was transcribed in vitro by T7 RNA polymerase (Promega) from a synthetic single strand DNA template containing the 17 base double-stranded T7 promoter (both DNA oligonucleotides were prepared by the Weizmann Institute Chemical Services). The RNA was transcriptionally labeled with α-^32P UTP, purified on a 12% polyacrylamide/7M urea gel (19:1 acrylamide:bis-acrylamide) and was eluted from the gel by 0.5M ammonium acetate, 10 mM magnesium acetate, 1 mM EDTA and 0.1% SDS. The sample was subjected to phenol extraction and the RNA was precipitated from 70% ethanol. Purified RNA was dissolved in diethyl pyrocarbonate-treated water (DEPC water), its concentration was determined by UV absorption at 260 nm and the specific radioactivity was determined by scintillation counting on a LS 1701 “Bruker” counter.
To study the affinity of the test compounds to TAR, gel-shift and gel-shift inhibition experiments were performed. The binding reaction mixtures (20 μl) contained ^32P-labeled TAR (18-44) RNA oligonucleotide (3-6 nM) and Tat R52 peptide (35-75 nM) in a binding buffer (10 mM Tris-HCl pH 7.5, 70 mM NaCl, 0.2 mM EDTA and 5% glycerol). The reaction mixtures were incubated for 10 minutes on ice and resolved by electrophoresis on a 10% non-denaturing polyacrylamide gel (40:1 acrylamide:bis-acrylamide) at 200V, for 3 h at 4° C. Gels were dried and visualized by autoradiography. Quantitations were obtained by optical densitometry of films. Alternatively, results were visualized by exposing the wet gels to Fuji phosphoimager plates, which were read on a “Storm 820” (Molecular Dynamics) phosphoimager. Different concentrations of TAR RNA (6,12 and 20 nM) were titrated with various concentrations of Tat R52 in the binding reactions.
Binding inhibition by the monosaccharide derivatives was measured by adding several concentrations of each compound to reaction mixtures containing 60 nM Tat 52 and 6 nM ^32P TAR, attaining 100% binding of Tat TAR in the absence of inhibitors (Lapidot et al., 1995).

[3] = test system: TAR RNA; test: Gel-shift binding to TAR RNA; parameters: species or system HIV-1
Method: as §1
To study the affinity of the test compounds to TAR, gel-shift and gel-shift inhibition experiments were performed. The binding reaction mixtures (20 μl) contained ^32P-labeled TAR (18-44) RNA oligonucleotide (3-6 nM) and Tat R52 peptide (35-75 nM) in a binding buffer (10 mM Tris-HCl pH 7.5, 70 mM NaCl, 0.2 mM EDTA and 5% glycerol). The reaction mixtures were incubated for 10 minutes on ice and resolved by electrophoresis on a 10% non-denaturing polyacrylamide gel (40:1 acrylamide:bis-acrylamide) at 200V, for 3 h at 4° C. Gels were dried and visualized by autoradiography. Quantitations were obtained by optical densitometry of films. Alternatively, results were visualized by exposing the wet gels to Fuji phosphoimager plates, which were read on a “Storm 820” (Molecular Dynamics) phosphoimager. […]
Binding of aminoglycoside-arginine conjugates (AAC) to TAR RNA was measured by adding varying concentrations of each conjugate to reaction mixtures (20 μl) which contained 12 nM ^32P-labeled TAR RNA. The reactions were analyzed as described above.

concentration from which a complex with TAR RNA is formed ([3]; 20 nM TAR RNA) [nM] | Structure (SMILES) | CE50 [1] [mM] | IC50 [2] [µM] | Ki [2] [µM] | CD50 ([3]; 50% binding, TAR RNA 20 nM) [nM] | Kd ([3]; CD50 normalized to the reported conditions (Calnan et al., 1991 b), read-out: apparent Kd) [µM]
– | CO[C@@H]1O[C@H](C/C(N)=N/O)C(O)[C@H](O)[C@@H]1O (stereo partly drawn) [compound 9, Methyl 6-deoxy-α-D-mannoheptopyranuronic acid amidoxime] | >1500 | > 50000 | – | – | –
– | CO[C@H]1O[C@H](CNC(=N)N)[C@@H](O)[C@H](O)[C@@H]1O [compound 10, Methyl 6-deoxy-6-guanidino-α-D-mannopyranoside] | 650 | 9000 | ~1000 | – | –
– | CO[C@H]1O[C@H](CN)[C@@H](O)[C@H](O)[C@@H]1O [compound 7, Methyl 6-deoxy-6-amino-α-D-mannopyranoside] | >1500 | 56000 | – | – | –
– | COC1OC(CNC(=O)C(N)CCCNC(=N)N)C(O)C(O)C1O [RMMP, Methyl 6-deoxy6-(N-L-argininamido)-α-D-mannopyranoside] | 310 | 1800 | ~160 | – | –
≥ 200 | CN[C@@H]1[C@@H](O)[C@@H](O[C@@H]2[C@@H](O)[C@H](O[C@H]3O[C@H](CNC(=O)[C@@H](N)CCCNC(=N)N)CC[C@H]3NC(=O)[C@@H](N)CCCNC(=N)N)[C@@H](NC(=O)[C@@H](N)CCCNC(=N)N)C[C@H]2NC(=O)[C@@H](N)CCCNC(=N)N)OC[C@]1(C)O [R4GC1a, Tetraargininamido-gentamicin (C1a) conjugate] | – | – | – | 200 | ~0.02
– | CO[C@@H]1O[C@H](CNC(C)=N)C(O)[C@H](O)[C@@H]1O (stereo partly drawn) [compound 11, Methyl 6-deoxy-6-(N-acetamidino)-α-D-mannopyranoside] | 730 | 11000 | ~1000 | – | –
– | CO[C@H]1O[C@H](CC#N)[C@@H](O)[C@H](O)[C@@H]1O [compound 4, Methyl 6-deoxy-6-cyano-α-D-mannopyranoside] | 1200 | 46000 | – | – | –
